Our source for the IC50 values is patent publication US20170037028A1 (BAYER PHARMA AKTIENGESELLSCHAFT, priority 2013, published 2017).

This experiment deals with T1, GLUT1 (Homo sapiens, UniProt P11166).
T1 sequence (P11166 1-492): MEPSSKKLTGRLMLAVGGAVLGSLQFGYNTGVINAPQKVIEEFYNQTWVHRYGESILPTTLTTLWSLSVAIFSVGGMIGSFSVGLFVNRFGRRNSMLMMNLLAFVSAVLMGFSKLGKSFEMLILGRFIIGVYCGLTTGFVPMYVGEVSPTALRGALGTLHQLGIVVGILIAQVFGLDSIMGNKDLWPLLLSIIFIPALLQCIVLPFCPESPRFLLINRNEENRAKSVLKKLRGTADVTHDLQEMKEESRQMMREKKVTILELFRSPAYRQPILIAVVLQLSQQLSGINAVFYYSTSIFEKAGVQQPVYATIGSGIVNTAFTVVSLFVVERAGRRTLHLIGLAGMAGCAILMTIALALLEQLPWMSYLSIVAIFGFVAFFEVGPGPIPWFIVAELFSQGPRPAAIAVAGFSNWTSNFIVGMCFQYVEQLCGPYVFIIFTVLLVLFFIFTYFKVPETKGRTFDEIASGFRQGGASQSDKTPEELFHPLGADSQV
The experiment is described as follows: Indirect measurement of GLUT1 activity by quantification of intracellular ATP levels (glucose induced ATP increase). It counts as cell-based. On the set-up: endogenous in cells; host or cells: DLD1 or CHO-K1. The note with it: read-out: IC50 regarding glucose induced ATP increase (GLUT1 inhibition). A digest of the protocol: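 DLD1 or CHO-K1 cells were starved overnight in glucose-free medium with 1% FCS, then combined with an oxidative phosphorylation inhibitor. GLUT1 activity was read as glucose-induced ATP increase, GLUT2 as fructose-induced. Intracellular ATP was quantified by CellTiter-Glo luminescence.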
By IC50 is commonly meant the concentration that inhibits the measured activity by half. As to `COc1ccccc1CNC(=O)c1ccc(Cn2nc(C)c(NC(=O)c3cc(C(F)(F)F)nc4ccc(Br)cc34)c2C)cc1` [Example 1183], the IC50 amounted to 241 nM. As for `Cc1cc2c(C(=O)Nc3c(C(F)(F)F)nn(Cc4ccc(C#N)cc4)c3C)cc(C(N)=O)nc2cc1F` [Example 343, N^4-[1-(4-cyanobenzyl)-5-methyl-3-(trifluoromethyl)-1H-pyrazol-4-yl]-7-fluoro-6-methylquinoline-2,4-dicarboxamide], the IC50 was found to be 0.7 nM. As to `Cc1nn(Cc2ccccc2C#N)c(C)c1NC(=O)c1cc(C(F)(F)F)nc2ccc(Br)cc12` [Example 6, 6-bromo-N-[1-(2-cyanobenzyl)-3,5-dimethyl-1H-pyrazol-4-yl]-2-(trifluoromethyl)quinoline-4-carboxamide], the concentration for half-maximal inhibition (IC50) turned out to be 4.7 nM. On to `Cc1nn(Cc2ccc(C(=O)NCC(C)(C)O)cc2)c(C)c1NC(=O)c1cc(C(F)(F)F)nc2ccc(Br)cc12` [Example 1085], for which the IC50 came to 31.2 nM. Under `Cc1nn(Cc2ccc(C(N)=O)cc2)c(C)c1NC(=O)c1cc(C(F)(F)F)nc2ccc(Br)cc12` [Example 133, 6-bromo-N-[1-(4-carbamoylbenzyl)-3,5-dimethyl-1H-pyrazol-4-yl]-2-(trifluoromethyl)quinoline-4-carboxamide] stands 5.6 nM; under `Cc1c(NC(=O)c2cc(C(N)=O)nc3cc(F)c(Cl)cc23)c(C(F)(F)F)nn1Cc1ccncc1` [Example 1368], 29.3 nM; under `Cc1nn(Cc2ccc(CC#N)cc2)c(C)c1NC(=O)c1cc(C(N)=O)nc2cccc(F)c12` [Example 1612], 2.4 nM. In the case of `Cc1nn(Cc2cccc(C#N)c2)c(C)c1NC(=O)c1cc(C(N)=O)nc2cc(F)ccc12` [Example 1454], the IC50 was 13.3 nM. Consider `Cc1nn(CC2CCOCC2)c(C)c1NC(=O)c1cc(C(F)(F)F)nc2c(Cl)cc(Cl)cc12` [Example 1143], for which the IC50 worked out at 114 nM. With `COc1ccc(Cn2nc(C(F)(F)F)c(NC(=O)c3cc(C(N)=O)nc4cc(F)c(F)cc34)c2C)cc1` [Example 279, 6,7-difluoro-N^4-[1-(4-methoxybenzyl)-5-methyl-3-(trifluoromethyl)-1H-pyrazol-4-yl]quinoline-2,4-dicarboxamide], the IC50 was determined as 1.4 nM. Turning to `Cc1cccc(Cn2nc(C)c(NC(=O)c3cc(C(N)=O)nc4cc(F)ccc34)c2C)c1` [Example 1474], the IC50 was found to be 2.1 nM. Under `COC(=O)c1cc(C(=O)Nc2c(C)nn(Cc3ccc(C#N)cc3)c2C)c2ccc(OC)cc2n1` [Example 1390] stands 229 nM. Regarding `COc1cc(C(=O)Nc2c(C)nn(CCc3ccc(F)cc3)c2C)c2ccccc2n1` [Example 1181], the IC50 came out at 237 nM. Regarding `Cc1c(NC(=O)c2cc(C(F)(F)F)nc3ccc(Br)cc23)c(C(F)(F)F)nn1Cc1ccncc1` [Example 1365], the IC50 was 167 nM. Under `Cc1nn(Cc2ccc(C(F)(F)F)cc2)c(C)c1NC(=O)c1cc(C(N)=O)nc2cc(F)c(Cl)cc12` [Example 1598] stands 1.4 nM; under `Cc1nn(Cc2ccc(C(=O)N(C)CCC3(O)CCCC3)cc2)c(C)c1NC(=O)c1cc(C(F)(F)F)nc2ccc(Br)cc12` [Example 1146], 117 nM; under `CCc1ccc(Cn2nc(C(F)(F)F)c(NC(=O)c3cc(C(N)=O)nc4ccc(Br)cc34)c2C)cc1` [Example 1414], 0.8 nM.

Consider `Cc1c(NC(=O)c2cc(C(N)=O)nc3ccc(Br)cc23)c(C(F)(F)F)nn1Cc1ccc(S(C)(=O)=O)cc1` [Example 1439], for which the IC50 is 1.9 nM. With `Cc1nn(Cc2ccccc2C#N)c(C)c1NC(=O)c1cc(C(F)(F)F)nc2c(Cl)cc(Cl)cc12` [Example 68, 6,8-dichloro-N-[1-(2-cyanobenzyl)-3,5-dimethyl-1H-pyrazol-4-yl]-2-(trifluoromethyl)quinoline-4-carboxamide], the IC50 turned out to be 148 nM. Regarding `Cc1nn(C(C)CCc2ccc(F)cc2)c(C)c1NC(=O)c1cc(C(F)(F)F)nc2ccc(Br)cc12` (racemic) [Example 1378], the IC50 is 643 nM. For the molecule `Cc1nn(Cc2ccccc2C#N)c(C)c1NC(=O)c1cc(C(N)=O)nc2ccc(Br)cc12` [Example 268, 6-bromo-N^4-[1-(2-cyanobenzyl)-3,5-dimethyl-1H-pyrazol-4-yl]quinoline-2,4-dicarboxamide], the IC50 came to 0.6 nM. Take `Cc1nn(Cc2ccc(F)c(F)c2)c(C)c1NC(=O)c1cc(C(F)(F)F)nc2cc(F)ccc12` [Example 168, N-[1-(3,4-difluorobenzyl)-3,5-dimethyl-1H-pyrazol-4-yl]-7-fluoro-2-(trifluoromethyl)quinoline-4-carboxamide]: the IC50 amounted to 47.8 nM. Regarding `CCc1nc(Cn2nc(C(F)(F)F)c(NC(=O)c3cc(C(N)=O)nc4cc(F)c(Cl)cc34)c2C)no1` [Example 409, 6-chloro-N^4-{1-[(5-ethyl-1,2,4-oxadiazol-3-yl)methyl]-5-methyl-3-(trifluoromethyl)-1H-pyrazol-4-yl}-7-fluoroquinoline-2,4-dicarboxamide], the IC50 is 5.5 nM.

Turning to `Cc1nn(Cc2ccc(F)cc2)c(C(N)=O)c1NC(=O)c1cc(C(F)(F)F)nc2ccc(Br)cc12` [Example 1197], the IC50 worked out at 385 nM. Regarding `CC(C)c1nn(Cc2ccc(F)cc2)c(C(C)C)c1NC(=O)c1cc(C(F)(F)F)nc2ccc(Br)cc12` [Example 1355], the concentration for half-maximal inhibition (IC50) was greater than 13000 nM.

On to `COC(=O)c1coc(Cn2nc(C(F)(F)F)c(NC(=O)c3cc(C(N)=O)nc4cc(F)ccc34)c2C)n1` [Example 1681], for which the IC50 amounted to 86.7 nM. With `CC(C)c1c(NC(=O)c2cc(C(N)=O)nc3ccccc23)c(C(F)(F)F)nn1Cc1ccc(C#N)cc1` [Example 317, N^4-[1-(4-cyanobenzyl)-5-isopropyl-3-(trifluoromethyl)-1H-pyrazol-4-yl]quinoline-2,4-dicarboxamide], the IC50 was 1050 nM. As to `Cc1ccc2nc(C)cc(C(=O)Nc3c(C(F)(F)F)nn(Cc4ccc(F)cc4)c3C)c2c1` [Example 73, N-[1-(4-fluorobenzyl)-5-methyl-3-(trifluoromethyl)-1H-pyrazol-4-yl]-2,6-dimethylquinoline-4-carboxamide], the IC50 amounted to 177 nM. Consider `Cc1nn(Cc2cc(F)cc(F)c2)c(C)c1NC(=O)c1cc(C(F)(F)F)nc2c(Cl)cc(Cl)cc12` [Example 1244], for which the half-inhibitory concentration (IC50) worked out at 1590 nM. As for `Cc1nn(Cc2ccc(C(=O)NCC3CCOCC3)cc2)c(C)c1NC(=O)c1cc(C(F)(F)F)nc2ccc(Br)cc12` [Example 1193], the IC50 is 343 nM. With `COc1cc(C(=O)Nc2c(C)nn(Cc3csc(N4CCOCC4)n3)c2C)c2ccccc2n1` [Example 1530] the figure was 893 nM; with `Cc1c(NC(=O)c2cc(C(N)=O)nc3cc(F)c(Cl)cc23)c(C(F)(F)F)nn1Cc1ccc(C#N)s1` [Example 421, 6-chloro-N^4-{1-[(5-cyano-2-thienyl)methyl]-5-methyl-3-(trifluoromethyl)-1H-pyrazol-4-yl}-7-fluoroquinoline-2,4-dicarboxamide], 2.9 nM; with `Cc1nn(Cc2cc(F)cc(F)c2)c(C)c1NC(=O)c1cc(C(F)(F)F)nc2ccc(Br)cc12` [Example 1256], 2040 nM.

Take `Cc1nn(Cc2ccc(OC(F)(F)F)cc2)c(C)c1NC(=O)c1cc(C(N)=O)nc2ccc(Br)cc12` [Example 1464]: the IC50 worked out at 5.5 nM. With `CCCNC(=O)c1ccc(Cn2nc(C)c(NC(=O)c3cc(C(F)(F)F)nc4ccc(Br)cc34)c2C)cc1` [Example 1020] the figure was 1.9 nM. With `COc1ccc(Cn2nc(C)c(NC(=O)c3cc(C(N)=O)nc4ccccc34)c2C)cc1F` [Example 238, N^4-[1-(3-fluoro-4-methoxybenzyl)-3,5-dimethyl-1H-pyrazol-4-yl]quinoline-2,4-dicarboxamide] the figure was 1.1 nM. Take `Cc1nn(Cc2ccc(F)c(F)c2)c(C)c1NC(=O)c1cc(C(F)(F)F)nc2cccc(F)c12` [Example 173, N-[1-(3,4-difluorobenzyl)-3,5-dimethyl-1H-pyrazol-4-yl]-5-fluoro-2-(trifluoromethyl)quinoline-4-carboxamide]: the IC50 stood at 65.2 nM. For `Cc1c(NC(=O)c2cc(C(N)=O)nc3cccc(F)c23)c(C(F)(F)F)nn1Cc1c(F)cc(C#N)cc1F` [Example 397, N^4-[1-(4-cyano-2,6-difluorobenzyl)-5-methyl-3-(trifluoromethyl)-1H-pyrazol-4-yl]-5-fluoroquinoline-2,4-dicarboxamide], the IC50 came out at 7.5 nM. Take `Cc1c(NC(=O)c2cc(C(N)=O)nc3cccc(F)c23)c(C(F)(F)F)nn1Cc1cccc(S(C)(=O)=O)c1` [Example 1639]: the IC50 was 273 nM. Turning to `Cc1ccc(CNC(=O)c2ccc(Cn3nc(C)c(NC(=O)c4cc(C(F)(F)F)nc5ccc(Br)cc45)c3C)cc2)cc1` [Example 1108], the IC50 was 52.5 nM. For `CCc1nn(Cc2ccc(F)cc2)c(CC)c1NC(=O)c1cc(C(N)=O)nc2ccccc12` [Example 1387], the IC50 came to 36.7 nM. For `Cc1nn(Cc2ccc(C(=O)NCc3cn(C)cn3)cc2)c(C)c1NC(=O)c1cc(C(F)(F)F)nc2ccc(Br)cc12` [Example 1125], the IC50 was 78.5 nM. With `Cc1c(NC(=O)c2cc(C(N)=O)nc3cc(F)c(Cl)cc23)c(C#N)nn1Cc1ccc(F)cc1` [Example 307, 6-chloro-N^4-[3-cyano-1-(4-fluorobenzyl)-5-methyl-1H-pyrazol-4-yl]-7-fluoroquinoline-2,4-dicarboxamide] the figure was 5.1 nM.
